From patent US12109176B1, “Effect of glycerol on biofilm forming bacteria and fungi that changes the microbes sensitivity to pro and anti-biofilm non-toxic, non-bonded plasma amino acids and amino acid derivatives” (priority 2023, dated 2024)

test system: bacterial (S. aureus) biofilm and fungal biofilm (C. albicans); experiment: Biofilm inhibition assay, bacterial and fungal taken together; type: cell-based; settings: Table D; Neutral = no effect on the biofilm, symbol marks the assay
Protocol: (§1) Two types of biofilm assays were performed: an inhibition assay and a disruption assay. The inhibition assay assesses the compound's ability to prevent biofilm development, while the disruption assay assesses the compound's ability to break up an existing mature biofilm.
(§2) All bacterial biofilm solutions were prepared in Tryptic Soy Broth (TSB), supplemented with 1% glucose (henceforth referred to as TSB-G). All subsequent procedures were performed in a manner that maintained sterility. A solution of each amino acid or an amino acid derivative to be tested was prepared in weight to volume concentrations ranging from 0.1-5.0%. Amino acids and amino acid derivatives were also tested in combinations. Compound solutions were homogenized with gentle agitation in the dark (4° C., 24 hours) before use.
(§3) 32 Amino acids and 2 amino acid derivatives of the amino acid serine that occur freely in human blood were tested. […] 31 of the 32 amino acids that were tested were the L-Isomers. Glycine has no stereoisomers. The 2 amino acid derivatives, ethanolamine and phosphoethanolamine were also tested. All biofilm assays were performed using 384-well non-tissue culture-treated polystyrene plates. The fungal species tested are as follows: Candida albicans, Candida guilliermondii, Candida parapsilosis, Candida glabrata, Candida tropicalis and Candida dubliniensis. The bacterial species tested are as follows: Staphylococci (standard wild type and methicillin-resistant strain USA300), Escherichia coli, Pseudomonas aeruginosa and Staphylococcus epidermidis.
Fungal strains were streaked on Yeast Peptone Dextrose (YPD) agar plates and incubated at 30° C. for 48 hours. A single colony from each strain to be tested was inoculated into YPD broth and grown for 12 hours at 30° C., shaking at 225 rpm. […] The cells were allowed to adhere to the plate for 90 minutes at 37° C. with shaking (350 rpm). […] The plate was further incubated for 24 hours at 37° C. with shaking (350 rpm). Media was carefully aspirated and the biofilm was measured by optical density at 600 nm. […] The cells were allowed to adhere to the plate for 90 minutes at 37° C. with shaking (350 rpm). […] The plate was further incubated for 24 hours at 37° C. with shaking (350 rpm). […] The plate was further incubated for 24 hours at 37° C. with shaking (350 rpm). Media was carefully aspirated, and the biofilm was measured by optical density at 600 nm.
Bacterial strains were streaked on Blood Agar plates (5% sheep blood in Tryptic Soy Broth) and incubated at 37° C. for 24 hours. A single colony from each strain to be tested was inoculated in a TSB broth and grown for 12 hours, at 37° C. with shaking (225 rpm). For the bacterial biofilm inhibition assays, 1 μL of saturated overnight cell culture was added to either 80 μL of TSB-G, or TSB-G supplemented with the amino acid compound solution to be tested, in a 384-well plate. The cells were allowed to adhere to the plate for 60 minutes at 37° C. without shaking. The media was carefully aspirated and 80 μL of TSB-G, or TSB-G supplemented with the amino acid compound solution was added to the plate. The plate was further incubated for 24 hours at 37° C. without shaking. Media was carefully aspirated and the biofilm was measured by optical density at 600 nm. Eight or twelve replicates were performed for each tested condition and the reported values are normalized to the control (TSB-G media only). For the bacterial biofilm disruption assays, 80 µL of TSB-G was added to the plate, along with 1 μL of overnight cell culture. The cells were allowed to adhere to the plate for 60 minutes at 37° C. with no shaking. The media was carefully aspirated and 80 μL of TSB-G was added to the plate. The plate was further incubated for 24 hours at 37° C. with no shaking. Media was carefully aspirated from the mature biofilm and 80 μL of TSB-G, or TSB-G supplemented with the amino acid to be tested, was gently added to the plate.

Row | Compound | Neutral (square: Inhibition Biofilm Assay)
1 | Cn1cnc(C[C@H](N)C(=O)O)c1 [1-Methylhistidine, 1-methyl-L-histidine] | ▪ (Single square [ie. ▪] signifies little effect on the Inhibition Biofilm Assay (from about 10 to less than 30%))
2 | CCC(N)C(=O)O (stereo not shown) [2 Aminobutyric Acid, 2-aminobutyric acid] | ▪ (Single square [ie. ▪] signifies little effect on the Inhibition Biofilm Assay (from about 10 to less than 30%))
3 | NCCC[C@H](N)C(=O)O [Ornithine, L-ornithine] | ▪ (Single square [ie. ▪] signifies little effect on the Inhibition Biofilm Assay (from about 10 to less than 30%))
4 | O=C(O)[C@@H]1CCCN1 [Proline, L-proline] | ▪ (Single square [ie. ▪] signifies little effect on the Inhibition Biofilm Assay (from about 10 to less than 30%))

same assay, conditions: Table E; in the absence of an infusion of glycerol; symbol marks the assay

Row | Compound | Neutral (square: Inhibition Biofilm Assay)
5 | Cn1cnc(C[C@H](N)C(=O)O)c1 [1-Methylhistidine, 1-methyl-L-histidine] | ▪ (Single square [ie. ▪] signifies little effect on the Inhibition Biofilm Assay (from about 10 to less than 30%))
6 | CCC(N)C(=O)O (stereo not shown) [2 Aminobutyric Acid, 2-aminobutyric acid] | ▪ (Single square [ie. ▪] signifies little effect on the Inhibition Biofilm Assay (from about 10 to less than 30%))
7 | NCCC[C@H](N)C(=O)O [Ornithine, L-ornithine] | ▪ (Single square [ie. ▪] signifies little effect on the Inhibition Biofilm Assay (from about 10 to less than 30%))
8 | O=C(O)[C@@H]1CCCN1 [Proline, L-proline] | ▪ (Single square [ie. ▪] signifies little effect on the Inhibition Biofilm Assay (from about 10 to less than 30%))

same assay, conditions: Table F; in the presence of a sufficient concentration of glycerol; symbol marks the assay

Row | Compound | Neutral (square: Inhibition Biofilm Assay)
9 | Cn1cnc(C[C@H](N)C(=O)O)c1 [1-Methylhistidine, 1-methyl-L-histidine] | ▪ (Single square [ie. ▪] signifies little effect on the Inhibition Biofilm Assay (from about 10 to less than 30%))
10 | CCC(N)C(=O)O (stereo not shown) [2 Aminobutyric Acid, 2-aminobutyric acid] | ▪ (Single square [ie. ▪] signifies little effect on the Inhibition Biofilm Assay (from about 10 to less than 30%))
11 | NCCC[C@H](N)C(=O)O [Ornithine, L-ornithine] | ▪ (Single square [ie. ▪] signifies little effect on the Inhibition Biofilm Assay (from about 10 to less than 30%))
12 | O=C(O)[C@@H]1CCCN1 [Proline, L-proline] | ▪ (Single square [ie. ▪] signifies little effect on the Inhibition Biofilm Assay (from about 10 to less than 30%))

test system: bacterial (S. aureus) biofilm; experiment: Bacterial biofilm inhibition assay; type: cell-based, Staphylococcus aureus; settings: Table D; 0.1 to 5.0%
Protocol: as §1, §2, §3
(§4) Bacterial strains were streaked on Blood Agar plates (5% sheep blood in Tryptic Soy Broth) and incubated at 37° C. for 24 hours. A single colony from each strain to be tested was inoculated in a TSB broth and grown for 12 hours, at 37° C. with shaking (225 rpm). For the bacterial biofilm inhibition assays, 1 μL of saturated overnight cell culture was added to either 80 μL of TSB-G, or TSB-G supplemented with the amino acid compound solution to be tested, in a 384-well plate. The cells were allowed to adhere to the plate for 60 minutes at 37° C. without shaking. The media was carefully aspirated and 80 μL of TSB-G, or TSB-G supplemented with the amino acid compound solution was added to the plate. The plate was further incubated for 24 hours at 37° C. without shaking. Media was carefully aspirated and the biofilm was measured by optical density at 600 nm. Eight or twelve replicates were performed for each tested condition and the reported values are normalized to the control (TSB-G media only). For the bacterial biofilm disruption assays, 80 µL of TSB-G was added to the plate, along with 1 μL of overnight cell culture. The cells were allowed to adhere to the plate for 60 minutes at 37° C. with no shaking. The media was carefully aspirated and 80 μL of TSB-G was added to the plate. The plate was further incubated for 24 hours at 37° C. with no shaking. Media was carefully aspirated from the mature biofilm and 80 μL of TSB-G, or TSB-G supplemented with the amino acid to be tested, was gently added to the plate. The plate was further incubated for 24 hours at 37° C. without shaking. Media was aspirated and the biofilm was measured by optical density at 600 nm. Twelve replicates were performed for each tested condition and the reported values are normalized to the control (TSB-G media only).

Row | Compound | Promote B Biofilm (squares: Inhibition Biofilm Assay) | Reduce or Inhibit B Biofilm (squares: Inhibition Biofilm Assay)
13 | N=C(N)NCCC[C@H](N)C(=O)O [Arginine, L-arginine] | ▪ (Single square [ie. ▪] signifies little effect on the Inhibition Biofilm Assay (from about 10 to less than 30%)) | 
14 | NC(=O)C[C@H](N)C(=O)O [Asparagine, L-asparagine] | ▪ (Single square [ie. ▪] signifies little effect on the Inhibition Biofilm Assay (from about 10 to less than 30%)) | 
15 | NCCC(=O)O [Beta-Alanine, Beta-alanine] |  | ▪ (Single square [ie. ▪] signifies little effect on the Inhibition Biofilm Assay (from about 10 to less than 30%))
16 | NC(=O)NCCC[C@H](N)C(=O)O [Citrulline, L-citrulline] | ▪ (Single square [ie. ▪] signifies little effect on the Inhibition Biofilm Assay (from about 10 to less than 30%)) | 
17 | NCC(=O)O [Glycine, L-glycine] | ▪ (Single square [ie. ▪] signifies little effect on the Inhibition Biofilm Assay (from about 10 to less than 30%)) | 
18 | CC[C@H](C)[C@H](N)C(=O)O [Isoleucine, L-isoleucine] | ▪ (Single square [ie. ▪] signifies little effect on the Inhibition Biofilm Assay (from about 10 to less than 30%)) | 
19 | CC(C)C[C@H](N)C(=O)O [Leucine, L-leucine] | ▪ (Single square [ie. ▪] signifies little effect on the Inhibition Biofilm Assay (from about 10 to less than 30%)) | 
20 | NCCCC[C@H](N)C(=O)O [Lysine, L-lysine] | ▪ (Single square [ie. ▪] signifies little effect on the Inhibition Biofilm Assay (from about 10 to less than 30%)) | 
21 | CSCC[C@H](N)C(=O)O [Methionine, L-methionine] | ▪ (Single square [ie. ▪] signifies little effect on the Inhibition Biofilm Assay (from about 10 to less than 30%)) | 

same assay, conditions: Table E; in the absence of an infusion of glycerol

Row | Compound | Promote B Biofilm (squares: Inhibition Biofilm Assay)
22 | N=C(N)NCCC[C@H](N)C(=O)O [Arginine, L-arginine] | ▪ (Single square [ie. ▪] signifies little effect on the Inhibition Biofilm Assay (from about 10 to less than 30%))
23 | NC(=O)C[C@H](N)C(=O)O [Asparagine, L-asparagine] | ▪ (Single square [ie. ▪] signifies little effect on the Inhibition Biofilm Assay (from about 10 to less than 30%))
24 | NC(=O)NCCC[C@H](N)C(=O)O [Citrulline, L-citrulline] | ▪ (Single square [ie. ▪] signifies little effect on the Inhibition Biofilm Assay (from about 10 to less than 30%))
25 | NCC(=O)O [Glycine, L-glycine] | ▪ (Single square [ie. ▪] signifies little effect on the Inhibition Biofilm Assay (from about 10 to less than 30%))
26 | CC[C@H](C)[C@H](N)C(=O)O [Isoleucine, L-isoleucine] | ▪ (Single square [ie. ▪] signifies little effect on the Inhibition Biofilm Assay (from about 10 to less than 30%))
27 | CC(C)C[C@H](N)C(=O)O [Leucine, L-leucine] | ▪ (Single square [ie. ▪] signifies little effect on the Inhibition Biofilm Assay (from about 10 to less than 30%))
28 | NCCCC[C@H](N)C(=O)O [Lysine, L-lysine] | ▪ (Single square [ie. ▪] signifies little effect on the Inhibition Biofilm Assay (from about 10 to less than 30%))
29 | CSCC[C@H](N)C(=O)O [Methionine, L-methionine] | ▪ (Single square [ie. ▪] signifies little effect on the Inhibition Biofilm Assay (from about 10 to less than 30%))

same assay, conditions: Table F; in the presence of a sufficient concentration of glycerol

Row | Compound | Reduce or Inhibit B Biofilm (squares: Inhibition Biofilm Assay)
30 | NCCC(=O)O [Beta-Alanine, Beta-alanine] | ▪ (Single square [ie. ▪] signifies little effect on the Inhibition Biofilm Assay (from about 10 to less than 30%))

test system: bacterial biofilm; experiment: In vitro testing on bacterial biofilm (inhibition and/or disruption); type: cell-based; settings: in vitro testing
Protocol: as §1, §2, §3, §4

Row | Compound | effect on bacterial biofilm (in words)
31 | N=C(N)NCCC[C@H](N)C(=O)O [Arginine, L-arginine] | promoted bacterial biofilm formation
32 | NC(=O)C[C@H](N)C(=O)O [Asparagine, L-asparagine] | promoted bacterial biofilm formation
33 | NCCC(=O)O [Beta-Alanine, Beta-alanine] | antibacterial biofilm effect
34 | NC(=O)NCCC[C@H](N)C(=O)O [Citrulline, L-citrulline] | promoted bacterial biofilm formation
35 | NCC(=O)O [Glycine, L-glycine] | promoted bacterial biofilm formation
36 | CC[C@H](C)[C@H](N)C(=O)O [Isoleucine, L-isoleucine] | promoted bacterial biofilm formation
37 | CC(C)C[C@H](N)C(=O)O [Leucine, L-leucine] | promoted bacterial biofilm formation
38 | NCCCC[C@H](N)C(=O)O [Lysine, L-lysine] | promoted bacterial biofilm formation
39 | CSCC[C@H](N)C(=O)O [Methionine, L-methionine] | promoted bacterial biofilm formation
40 | NCCC[C@H](N)C(=O)O [Ornithine, L-ornithine] | promoted bacterial biofilm formation
41 | O=C(O)[C@@H]1CCCN1 [Proline, L-proline] | promoted bacterial biofilm formation
42 | NCCS(=O)(=O)O [Taurine, L-taurine] | promoted bacterial biofilm formation
43 | C[C@@H](O)[C@H](N)C(=O)O [Threnonine, L-threonine] | promoted bacterial biofilm formation
